Test results reported in publication PMC10893631, “Receptor-based pharmacophore modeling, molecular docking, synthesis and biological evaluation of novel VEGFR-2, FGFR-1, and BRAF multi-kinase inhibitors” (BMC Chemistry, 2024).

Assays:
Assay in all cases: NCI SRB growth inhibition (single dose 10 µM / five-dose)
Assay type in all cases: cell-based, human
SK-OV-3 = conditions: Homo sapiens; for inhibition at 10 µM: SK-OV-3 (Ovarian cancer), read-out: GI%; for GI50: SK-OV-3, Ovarian cancer, five-dose
How it was run: (§1)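 SRB read-out. Plating density 5000–40,000 cells/well; Tz fixed at 24 h; 5 conc. (10-fold or ½ log) + control; TCA fix, 0.4% SRB/1% AcOH 10 min RT; % growth = (Ti−Tz)/(C−Tz)×100, or (Ti−Tz)/Tz×100 when Ti<Tz.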

CAKI-1 = conditions: Homo sapiens; for inhibition at 10 µM: CAKI-1 (Renal cancer), read-out: GI%; for GI50: CAKI-1, Renal cancer, five-dose
How it was run: as §1

786–0 = conditions: Homo sapiens; for inhibition at 10 µM: 786–0 (Renal cancer), read-out: GI%; for GI50: 786–0, Renal cancer, five-dose
How it was run: as §1

HOP-62 = conditions: Homo sapiens; for inhibition at 10 µM: HOP-62 (Non-small cell lung cancer), read-out: GI%; for GI50: HOP-62, Non-small cell lung cancer, five-dose
How it was run: as §1

HT29 = conditions: Homo sapiens, HT-29; for inhibition at 10 µM: HT29 (Colon cancer), read-out: GI%; for GI50: HT29, Colon cancer, five-dose
How it was run: as §1

SF-539 = conditions: Homo sapiens; for inhibition at 10 µM: SF-539 (CNS cancer), read-out: GI%; for GI50: SF-539, CNS cancer, five-dose
How it was run: as §1

NCI/ADR-RES = conditions: Homo sapiens; for inhibition at 10 µM: NCI/ADR-RES (Ovarian cancer), read-out: GI%; for GI50: NCI/ADR-RES, Ovarian cancer, five-dose
How it was run: as §1

HCT-15 = conditions: Homo sapiens; for inhibition at 10 µM: HCT-15 (Colon cancer), read-out: GI%; for GI50: HCT-15, Colon cancer, five-dose
How it was run: as §1

HL-60(TB) = conditions: Homo sapiens; for inhibition at 10 µM: HL-60(TB) (Leukemia), read-out: GI%; for GI50: HL-60(TB), Leukemia, five-dose
How it was run: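 Growth inhibition is derived from seven absorbance readings per agent (Tz, C and five Ti). Where a parameter level is not reached or is exceeded, the value is given as greater or less than the highest or lowest concentration tested.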

SNB-75 = conditions: Homo sapiens; for inhibition at 10 µM: SNB-75 (CNS cancer), read-out: GI%; for GI50: SNB-75, CNS cancer, five-dose
How it was run: as §1

SK-MEL-5 = conditions: Homo sapiens; for inhibition at 10 µM: SK-MEL-5 (Melanoma), read-out: GI%; for GI50: SK-MEL-5, Melanoma, five-dose
How it was run: as §1

NCI-H522 = conditions: Homo sapiens; for inhibition at 10 µM: NCI-H522 (Non-small cell lung cancer), read-out: GI%; for GI50: NCI-H522, Non-small cell lung cancer, five-dose
How it was run: as §1

SR = conditions: Homo sapiens; for inhibition at 10 µM: SR (Leukemia), read-out: GI%; for GI50: SR, Leukemia, five-dose
How it was run: as §1

SNB-19 = conditions: Homo sapiens; for inhibition at 10 µM: SNB-19 (CNS cancer), read-out: GI%; for GI50: SNB-19, CNS cancer, five-dose
How it was run: as §1

MDA-MB-435 = conditions: Homo sapiens; for inhibition at 10 µM: MDA-MB-435 (Melanoma), read-out: GI%; for GI50: MDA-MB-435, Melanoma, five-dose
How it was run: as §1

RXF 393 = conditions: Homo sapiens; for inhibition at 10 µM: RXF 393 (Renal cancer), read-out: GI%; for GI50: RXF 393, Renal cancer, five-dose
How it was run: as §1

LOX IMVI = conditions: Homo sapiens; for inhibition at 10 µM: LOX IMVI (Melanoma), read-out: GI%; for GI50: LOX IMVI, Melanoma, five-dose
How it was run: as §1

BT-549 = conditions: Homo sapiens; for inhibition at 10 µM: BT-549 (Breast cancer), read-out: GI%; for GI50: BT-549, Breast cancer, five-dose
How it was run: as §1

SF-268 = conditions: Homo sapiens; for inhibition at 10 µM: SF-268 (CNS cancer), read-out: GI%; for GI50: SF-268, CNS cancer, five-dose
How it was run: as §1

KM12 = conditions: Homo sapiens; for inhibition at 10 µM: KM12 (Colon cancer), read-out: GI%; for GI50: KM12, Colon cancer, five-dose
How it was run: as §1

MDA-MB-231/ATCC = conditions: Homo sapiens; for inhibition at 10 µM: MDA-MB-231/ATCC (Breast cancer), read-out: GI%; for GI50: MDA-MB-231/ATCC, Breast cancer, five-dose
How it was run: as §1

MDA-MB-468 = conditions: Homo sapiens; for inhibition at 10 µM: MDA-MB-468 (Breast cancer), read-out: GI%; for GI50: MDA-MB-468, Breast cancer, five-dose
How it was run: as §1

DU-145 = conditions: Homo sapiens; for inhibition at 10 µM: DU-145 (Prostate cancer), read-out: GI%; for GI50: DU-145, Prostate cancer, five-dose
How it was run: as §1

COc1ccc(-c2nc3cc(C(=O)NN=Cc4cccc(O)c4)ccc3[nH]2)cc1 [8i, N'-(3-Hydroxybenzylidene)-2-(4-methoxyphenyl)-1H-benzo[d]imidazole-5-carbohydrazide]
inhibition at 10 µM (SK-OV-3): 54% | inhibition at 10 µM (CAKI-1): 5.16% | inhibition at 10 µM (786–0): 23.4% | inhibition at 10 µM (HOP-62): 42% | inhibition at 10 µM (HT29): 74.5% | inhibition at 10 µM (SF-539): 53.3% | inhibition at 10 µM (NCI/ADR-RES): < 5% | inhibition at 10 µM (HCT-15): 5.17% | inhibition at 10 µM (HL-60(TB)): 55.1% | inhibition at 10 µM (SNB-75): 17.8% | inhibition at 10 µM (SK-MEL-5): 40.5% | inhibition at 10 µM (NCI-H522): 43.4% | inhibition at 10 µM (SR): 81.9% | inhibition at 10 µM (SNB-19): 15.8% | inhibition at 10 µM (MDA-MB-435): 63.8% | inhibition at 10 µM (RXF 393): 14.5% | inhibition at 10 µM (LOX IMVI): 26.1% | inhibition at 10 µM (BT-549): 32.7% | inhibition at 10 µM (SF-268): 37.4% | inhibition at 10 µM (KM12): 38.7% | inhibition at 10 µM (MDA-MB-231/ATCC): 22.4% | inhibition at 10 µM (MDA-MB-468): 54.6% | inhibition at 10 µM (DU-145): 14%

COc1ccc(-c2nc3cc(C(=O)NN=Cc4cccc(OC)c4)ccc3[nH]2)cc1 [8j, N'-(3-Methoxybenzylidene)-2-(4-methoxyphenyl)-1H-benzo[d]imidazole-5-carbohydrazide]
inhibition at 10 µM (SK-OV-3): 68.3% | GI50 (SK-OV-3): 5.39 µM | inhibition at 10 µM (CAKI-1): 85.3% | GI50 (CAKI-1): 2.81 µM | inhibition at 10 µM (786–0): > 100% | GI50 (786–0): 3.84 µM | inhibition at 10 µM (HOP-62): > 100% | GI50 (HOP-62): 2700 nM | inhibition at 10 µM (HT29): > 100% | GI50 (HT29): 2.8 µM | inhibition at 10 µM (SF-539): 34.1% | GI50 (SF-539): 11.5 µM | inhibition at 10 µM (NCI/ADR-RES): 32% | GI50 (NCI/ADR-RES): 6.35 µM | inhibition at 10 µM (HCT-15): 79.2% | GI50 (HCT-15): 3.92 µM | inhibition at 10 µM (HL-60(TB)): 30.4% | GI50 (HL-60(TB)): 36.5 µM | inhibition at 10 µM (SNB-75): > 100% | GI50 (SNB-75): 1780 nM | inhibition at 10 µM (SK-MEL-5): > 100% | GI50 (SK-MEL-5): 3.45 µM | inhibition at 10 µM (NCI-H522): 89.7% | GI50 (NCI-H522): 3.3 µM | inhibition at 10 µM (SR): 92.7% | GI50 (SR): 10.6 µM | inhibition at 10 µM (SNB-19): > 100% | GI50 (SNB-19): 3.18 µM | inhibition at 10 µM (MDA-MB-435): 76.5% | GI50 (MDA-MB-435): 6.25 µM | inhibition at 10 µM (RXF 393): > 100% | GI50 (RXF 393): 2260 nM | inhibition at 10 µM (LOX IMVI): > 100% | GI50 (LOX IMVI): 1980 nM | inhibition at 10 µM (BT-549): 29.8% | GI50 (BT-549): 5.47 µM | inhibition at 10 µM (SF-268): 84.7% | GI50 (SF-268): 3280 nM | inhibition at 10 µM (KM12): > 100% | GI50 (KM12): 4.34 µM | inhibition at 10 µM (MDA-MB-231/ATCC): > 100% | GI50 (MDA-MB-231/ATCC): 2430 nM | inhibition at 10 µM (MDA-MB-468): > 100% | GI50 (MDA-MB-468): 3060 nM | inhibition at 10 µM (DU-145): > 100% | GI50 (DU-145): 3.28 µM

COc1ccc(-c2nc3cc(C(=O)NN=Cc4cccc(OC)c4O)ccc3[nH]2)cc1 [8k, N'-(2-Hydroxy-3-methoxybenzylidene)-2-(4-methoxyphenyl)-1H-benzo[d]imidazole-5-carbohydrazide]
inhibition at 10 µM (SK-OV-3): > 100% | GI50 (SK-OV-3): 4.31 µM | inhibition at 10 µM (CAKI-1): 84.6% | GI50 (CAKI-1): 3.64 µM | inhibition at 10 µM (786–0): > 100% | GI50 (786–0): 3.69 µM | inhibition at 10 µM (HOP-62): > 100% | GI50 (HOP-62): 3110 nM | inhibition at 10 µM (HT29): > 100% | GI50 (HT29): 3.67 µM | inhibition at 10 µM (SF-539): > 100% | GI50 (SF-539): 2.8 µM | inhibition at 10 µM (NCI/ADR-RES): 28.1% | GI50 (NCI/ADR-RES): > 100 µM | inhibition at 10 µM (HCT-15): 78.1% | GI50 (HCT-15): 3.35 µM | inhibition at 10 µM (HL-60(TB)): > 100% | GI50 (HL-60(TB)): 7.66 µM | inhibition at 10 µM (SNB-75): 91% | GI50 (SNB-75): 3050 nM | inhibition at 10 µM (SK-MEL-5): > 100% | GI50 (SK-MEL-5): 2.86 µM | inhibition at 10 µM (NCI-H522): > 100% | GI50 (NCI-H522): 2.98 µM | inhibition at 10 µM (SR): > 100% | GI50 (SR): 2.06 µM | inhibition at 10 µM (SNB-19): > 100% | GI50 (SNB-19): 3.33 µM | inhibition at 10 µM (MDA-MB-435): 76% | GI50 (MDA-MB-435): 6.2 µM | inhibition at 10 µM (RXF 393): > 100% | GI50 (RXF 393): 2580 nM | inhibition at 10 µM (LOX IMVI): > 100% | GI50 (LOX IMVI): 2340 nM | inhibition at 10 µM (BT-549): > 100% | GI50 (BT-549): 2.85 µM | inhibition at 10 µM (SF-268): > 100% | GI50 (SF-268): 2160 nM | inhibition at 10 µM (KM12): > 100% | GI50 (KM12): 2.45 µM | inhibition at 10 µM (MDA-MB-231/ATCC): 97.7% | GI50 (MDA-MB-231/ATCC): 2800 nM | inhibition at 10 µM (MDA-MB-468): > 100% | GI50 (MDA-MB-468): 1950 nM | inhibition at 10 µM (DU-145): 85.1% | GI50 (DU-145): 5.06 µM
